From patent US10407445B2, “Hepatitis C virus inhibitors” (ENANTA PHARMACEUTICALS, INC., priority 2013, dated 2019)

Assays:
Format in all cases: cell-based
HCV GT 1b replicon = assay: HCV replicon assay, stable GT 1b replicon (Renilla luciferase); conditions: Hepatitis C virus, GT1B, 72 h
Outline: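 Stable Huh-7.5-based GT1b replicon (Con1-derived) carrying hRluc-Neo, 4000 cells/well seeded onto a sixteen-point half-log compound series in G418-free, phenol red-free medium. After 72 h, Renilla luciferase is read relative to DMSO controls; CC50 in the same cells by CellTiter-Glo.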

HCV GT 2a-J6 replicon = assay: HCV replicon assay, GT2a chimeric replicon expressing NS5A from GT2a strain J6; conditions: Hepatitis C virus, 72 h, read-out: EC50 2a J6
Outline: (§1)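 Stable Huh-7.5 lines carried JFH-1 subgenomic replicons with hRluc-Neo reporter, in which NS5A was swapped for GT3a strain S52 or GT2a strain J6 NS5A. Renilla luciferase was read after 72 h relative to DMSO controls.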

HCV GT 3a replicon = assay: HCV replicon assay, GT2a chimeric replicon expressing NS5A from GT3a strain S52; conditions: Hepatitis C virus, 72 h, read-out: EC50 3a
Outline: as §1

[1] = tested on: GT1a replicon encoding NS5A mutation M28T; assay: Transient replication assay, GT1a replicon with NS5A mutation M28T; conditions: Hepatitis C virus, read-out: EC50 1a M28T
[2] = tested on: GT1a replicon encoding NS5A mutation Q30R; assay: Transient replication assay, GT1a replicon with NS5A mutation Q30R; conditions: Hepatitis C virus, read-out: EC50 1a Q30R
[3] = tested on: GT1a replicon encoding NS5A mutation Y93C; assay: Transient replication assay, GT1a replicon with NS5A mutation Y93C; conditions: Hepatitis C virus, read-out: EC50 1a Y93C

COC(=O)N[C@H](C(=O)N1C[C@]2(CCCOC2)C[C@H]1c1ncc(-c2ccc(-c3ccc(-c4cnc([C@@H]5C[C@@H]6CCCC[C@@H]6N5C(=O)[C@@H](NC(=O)OC)C(C)C)[nH]4)cc3)cc2)[nH]1)C(C)C [Compound 32]
EC50 (HCV GT 1b replicon): 0.006 nM
EC50 (HCV GT 2a-J6 replicon): 2 nM
EC50 (HCV GT 3a replicon): 2 nM
EC50 [1]: 0.05 nM
EC50 [2]: 0.04 nM
EC50 [3]: 0.5 nM

COC(=O)N[C@H](C(=O)N1CCC[C@H]1c1ncc(-c2ccc(-c3ccc4c(c3)OCc3nc([C@@H]5C[C@@]6(CCCOC6)CN5C(=O)[C@@H](NC(=O)OC)C(C)C)[nH]c3-4)cc2)[nH]1)C(C)C [Compound 33]
EC50 (HCV GT 1b replicon): 0.038 nM
EC50 (HCV GT 2a-J6 replicon): 1 nM
EC50 (HCV GT 3a replicon): 0.2 nM
EC50 [1]: 0.3 nM
EC50 [2]: 0.2 nM
EC50 [3]: 0.1 nM

COC(=O)N[C@H](C(=O)N1C[C@]2(CCCOC2)C[C@H]1c1nc2ccc3cc(-c4ccc(-c5cnc([C@@H]6C[C@@H]7COC[C@@H]7N6C(=O)[C@@H](NC(=O)OC)C(C)C)[nH]5)cc4)ccc3c2[nH]1)C(C)C [Compound 34]
EC50 (HCV GT 1b replicon): 0.041 nM
EC50 (HCV GT 2a-J6 replicon): 0.7 nM
EC50 (HCV GT 3a replicon): 1.5 nM
EC50 [1]: 0.03 nM
EC50 [2]: 0.02 nM
EC50 [3]: 0.09 nM

COC(=O)N[C@H](C(=O)N1C[C@]2(CCCOC2)C[C@H]1c1ncc(-c2ccc(-c3ccc4c(ccc5nc([C@@H]6C[C@@H]7COC[C@@H]7N6C(=O)[C@@H](NC(=O)OC)C(C)C)[nH]c54)c3)cc2)[nH]1)C(C)C [Compound 35]
EC50 (HCV GT 1b replicon): 0.049 nM
EC50 (HCV GT 2a-J6 replicon): 2 nM
EC50 (HCV GT 3a replicon): 2 nM
EC50 [1]: 0.2 nM
EC50 [2]: 0.07 nM
EC50 [3]: 0.4 nM

COC(=O)N[C@H](C(=O)N1C[C@]2(CCCOC2)C[C@H]1c1nc2ccc3cc(-c4ccc5c(ccc6nc([C@@H]7C[C@@H]8COC[C@@H]8N7C(=O)[C@@H](NC(=O)OC)C(C)C)[nH]c65)c4)ccc3c2[nH]1)C(C)C [Compound 36]
EC50 (HCV GT 1b replicon): 0.051 nM
EC50 (HCV GT 2a-J6 replicon): 0.3 nM
EC50 (HCV GT 3a replicon): 1 nM
EC50 [1]: 0.08 nM
EC50 [2]: 0.04 nM
EC50 [3]: 0.06 nM

COC(=O)N[C@H](C(=O)N1C[C@]2(CCCOC2)C[C@H]1c1ncc(-c2ccc(-c3ccc(-c4cnc([C@@H]5C[C@@H]6CCC[C@@H]6N5C(=O)[C@@H](NC(=O)OC)C(C)C)[nH]4)cc3)cc2)[nH]1)C(C)C [Compound 37]
EC50 (HCV GT 1b replicon): 0.009 nM
EC50 (HCV GT 2a-J6 replicon): 0.7 nM
EC50 (HCV GT 3a replicon): 3 nM
EC50 [1]: 0.03 nM
EC50 [2]: 0.02 nM
EC50 [3]: 1 nM

COC(=O)N[C@H](C(=O)N1C[C@]2(CCCOC2)C[C@H]1c1ncc(-c2ccc(-c3ccc4c(c3)CCCc3nc([C@@H]5C[C@@H]6CCCC[C@@H]6N5C(=O)[C@@H](NC(=O)OC)C(C)C)[nH]c3-4)cc2)[nH]1)C(C)C [Compound 40]
EC50 (HCV GT 1b replicon): 0.008 nM
EC50 (HCV GT 2a-J6 replicon): 55 nM
EC50 (HCV GT 3a replicon): 44 nM
EC50 [1]: 0.6 nM
EC50 [2]: 0.05 nM
EC50 [3]: 0.7 nM

COC(=O)N[C@H](C(=O)N1C[C@]2(CCCOC2)C[C@H]1c1ncc(-c2ccc(-c3ccc4c(c3)OCc3nc([C@@H]5C[C@@H]6CCCC[C@@H]6N5C(=O)[C@@H](NC(=O)OC)C(C)C)[nH]c3-4)cc2)[nH]1)C(C)C [Compound 42]
EC50 (HCV GT 1b replicon): 0.006 nM
EC50 (HCV GT 2a-J6 replicon): 2 nM
EC50 (HCV GT 3a replicon): 1 nM
EC50 [1]: 0.2 nM
EC50 [2]: 0.05 nM
EC50 [3]: 0.6 nM

COC(=O)N[C@H](C(=O)N1CCC[C@H]1c1ncc(-c2ccc(-c3ccc4c(ccc5nc([C@@H]6C[C@@]7(CCCOC7)CN6C(=O)[C@@H](NC(=O)OC)C(C)C)[nH]c54)c3)cc2)[nH]1)C(C)C [Compound 44]
EC50 (HCV GT 1b replicon): 0.016 nM
EC50 (HCV GT 2a-J6 replicon): 1 nM
EC50 (HCV GT 3a replicon): 0.06 nM
EC50 [1]: 0.06 nM
EC50 [2]: 0.1 nM
EC50 [3]: 0.2 nM

COC(=O)N[C@H](C(=O)N1C[C@]2(CCCOC2)C[C@H]1c1ncc(-c2ccc(-c3ccc4c(ccc5nc([C@@H]6CCCN6C(=O)[C@@H](NC(=O)OC)C(C)C)[nH]c54)c3)cc2)[nH]1)C(C)C [Compound 47]
EC50 (HCV GT 1b replicon): 0.016 nM
EC50 (HCV GT 2a-J6 replicon): 0.6 nM
EC50 (HCV GT 3a replicon): 0.08 nM
EC50 [1]: 0.2 nM
EC50 [2]: 0.1 nM
EC50 [3]: 0.3 nM
